From patent publication US20240308996A1, “PYRIDOPYRIDINES AND DERIVATIVES THEREOF AS SELECTIVE KINASE INHIBITORS” (University of Sharjah, priority 2023, published 2024)

Experiments:
Type in all cases: cell-based
SR = test: NCI-60 cell line panel: SR; conditions: Leukemia
Protocol: (§1) It was carried out at the NCI, Bethesda, MD, USA, utilizing their standard protocol.

LOX IMVI = test: NCI-60 cell line panel: LOX IMVI; conditions: Melanoma
Protocol: as §1

SF-268 = test: NCI-60 cell line panel: SF-268; conditions: CNS Cancer
Protocol: as §1

KM12 = test: NCI-60 cell line panel: KM12; conditions: Colon Cancer
Protocol: as §1

MDA-MB-468 = test: NCI-60 cell line panel: MDA-MB-468; conditions: Breast Cancer
Protocol: as §1

MOLT-4 = test: NCI-60 cell line panel: MOLT-4; design: TGI: unit not given here; conditions: Leukemia
Protocol: as §1

Hep3B = test: MTT assay, Hep3B HCC cell line; conditions: Homo sapiens, 48 h, mean of triplicate assays ± SEM
Protocol: (§2) Two HCC cell lines (Hep3B and HepG2) were used for screening the antiproliferative activity of the synthesized compounds. The cell lines were obtained from the European Collection of Cell Cultures (ECACC, UK) and maintained in Dulbecco's Modified Eagle Medium (DMEM: Sigma-Aldrich) supplemented with 10% fetal bovine serum (FBS) and 1% penicillin/streptomycin and incubated at 37° C. in a 5% CO2 air atmosphere. In addition, WI-38 normal cell line was used to investigate the safety of these compounds.
(§3) MTT assay was conducted to calculate the IC50 of the compounds following the reported procedure . Briefly, the cells were seeded in 96-well tissue culture plates with a density of 5×10^4 cells/well and incubated overnight at 37° C. in a 5% CO2 air atmosphere. […] DMSO was used as a negative control. After 48 h, the media were aspirated, and replaced with media containing 0.5 mg/mL of MTT tetrazolium dye (Sigma-Aldrich) for 2 h at 37° C. Finally, the media were removed and 200 μL of DMSO was added to solubilize the formazan crystals. Absorbance was then measured at 570 nm using Varioskan Flash multimode plate reader (Thermo Scientific, Massachusetts, USA).

NCI-H226 = test: NCI-60 cell line panel: NCI-H226; conditions: Non-Small Cell Lung Cancer
Protocol: as §1

HCT-15 = test: NCI-60 cell line panel: HCT-15; conditions: Colon Cancer
Protocol: as §1

RPMI-8226 = test: NCI-60 cell line panel: RPMI-8226; conditions: Leukemia
Protocol: as §1

CCRF-CEM = test: NCI-60 cell line panel: CCRF-CEM; conditions: Leukemia
Protocol: as §1

HL-60(TB) = test: NCI-60 cell line panel: HL-60(TB); design: TGI: unit not given here; conditions: Leukemia
Protocol: as §1

OVCAR-5 = test: NCI-60 cell line panel: OVCAR-5; conditions: Ovarian Cancer
Protocol: as §1

DU-145 = test: NCI-60 cell line panel: DU-145; conditions: Prostate Cancer
Protocol: as §1

NCI-H23 = test: NCI-60 cell line panel: NCI-H23; conditions: Non-Small Cell Lung Cancer
Protocol: as §1

[1] = tested on: hepatocellular carcinoma cell lines; test: Screening against HCC cell lines
Protocol: The target compounds were tested against hepatocellular carcinoma cell lines. Compounds 1j. 13a. 13b. 13c. […] The mean inhibition percentage values are illustrated in Table 9.
as §2
MTT assay was conducted to calculate the IC50 of the compounds following the reported procedure . Briefly, the cells were seeded in 96-well tissue culture plates with a density of 5×10^4 cells/well and incubated overnight at 37° C. in a 5% CO2 air atmosphere. After that, cells were treated with the newly synthesized compounds or sorafenib as a positive control. DMSO was used as a negative control. After 48 h, the media were aspirated, and replaced with media containing 0.5 mg/mL of MTT tetrazolium dye (Sigma-Aldrich) for 2 h at 37° C. Finally, the media were removed and 200 μL of DMSO was added to solubilize the formazan crystals. Absorbance was then measured at 570 nm using Varioskan Flash multimode plate reader (Thermo Scientific, Massachusetts, USA).

A498 = test: NCI-60 cell line panel: A498; conditions: Renal Cancer
Protocol: as §1

PC-3 = test: NCI-60 cell line panel: PC-3; conditions: Prostate Cancer
Protocol: as §1

RXF 393 = test: NCI-60 cell line panel: RXF 393; conditions: Renal Cancer
Protocol: as §1

HOP-92 = test: NCI-60 cell line panel: HOP-92; design: TGI: unit not given here; conditions: Non-Small Cell Lung Cancer
Protocol: as §1

SK-OV-3 = test: NCI-60 cell line panel: SK-OV-3; conditions: Ovarian Cancer
Protocol: as §1

OVCAR-8 = test: NCI-60 cell line panel: OVCAR-8; conditions: Ovarian Cancer
Protocol: as §1

M14 = test: NCI-60 cell line panel: M14; conditions: Melanoma
Protocol: as §1

A549/ATCC = test: NCI-60 cell line panel: A549/ATCC; conditions: Non-Small Cell Lung Cancer
Protocol: as §1

MDA-MB-435 = test: NCI-60 cell line panel: MDA-MB-435; design: TGI: unit not given here; conditions: Melanoma
Protocol: as §1

SK-MEL-5 = test: NCI-60 cell line panel: SK-MEL-5; conditions: Melanoma
Protocol: as §1

NCI-H322M = test: NCI-60 cell line panel: NCI-H322M; conditions: Non-Small Cell Lung Cancer
Protocol: as §1

HepG2 = test: MTT assay, HepG2 HCC cell line; conditions: Homo sapiens, 48 h, mean of triplicate assays ± SEM
Protocol: as §2, §3

Q: With `CC(C)NC(=O)c1cc(-c2ccc(NC(=O)Nc3ccc(N4CCN(C)CC4)c(C(F)(F)F)c3)cc2)nc2cccnc12` [Compound 13e, N-Isopropyl-2-(4-(3-(4-(4-methylpiperazin-1-yl)-3-(trifluoromethyl)phenyl)ureido)phenyl)-1,5-naphthyridine-4-carboxamide] as the molecule, how does the IC50 (SR; Homo sapiens) read?
A: The IC50 was 1000 nM.

Q: What about the TGI (SR; total growth inhibition) of the same molecule?
A: The TGI was 3190 nM.

Q: And the IC50 (LOX IMVI; Homo sapiens)?
A: Its IC50 is 620 nM.

Q: What about the TGI (LOX IMVI; total growth inhibition) of the same molecule?
A: The TGI was 1150 nM.

Q: And the TGI (SF-268; total growth inhibition)?
A: The TGI was 1620 nM.

Q: What about the IC50 (SF-268; Homo sapiens) of the same molecule?
A: The IC50 was 700 nM.

Q: And the TGI (KM12; total growth inhibition)?
A: Its TGI is 1660 nM.

Q: What about the IC50 (KM12; Homo sapiens) of the same molecule?
A: The IC50 was 800 nM.

Q: And the TGI (MDA-MB-468; total growth inhibition)?
A: The TGI was 1360 nM.

Q: What about the IC50 (MDA-MB-468; Homo sapiens) of the same molecule?
A: Its IC50 is 710 nM.

Q: What about the IC50 (MOLT-4; Homo sapiens) of the same molecule?
A: The IC50 was 760 nM.

Q: And the TGI (MOLT-4; total growth inhibition)?
A: Its TGI is 2.89.

Q: What about the IC50 (Hep3B) of the same molecule?
A: The IC50 was 1760 ± 10 nM.

Q: What about the IC50 (NCI-H226; Homo sapiens) of the same molecule?
A: Its IC50 is 5600 nM.

Q: And the TGI (NCI-H226; total growth inhibition)?
A: Its TGI is 14700 nM.

Q: And the TGI (HCT-15; total growth inhibition)?
A: Its TGI is 1410 nM.

Q: What about the IC50 (HCT-15; Homo sapiens) of the same molecule?
A: Its IC50 is 700 nM.

Q: What about the IC50 (RPMI-8226; Homo sapiens) of the same molecule?
A: Its IC50 is 980 nM.

Q: And the TGI (RPMI-8226; total growth inhibition)?
A: The TGI was 3480 nM.

Q: And the IC50 (CCRF-CEM; Homo sapiens)?
A: The IC50 was 740 nM.

Q: What about the TGI (CCRF-CEM; total growth inhibition) of the same molecule?
A: The TGI was 1980 nM.

Q: And the IC50 (HL-60(TB); Homo sapiens)?
A: The IC50 was 770 nM.

Q: And the TGI (HL-60(TB); total growth inhibition)?
A: Its TGI is 2.12.

Q: What about the IC50 (OVCAR-5; Homo sapiens) of the same molecule?
A: The IC50 was 650 nM.

Q: What about the TGI (OVCAR-5; total growth inhibition) of the same molecule?
A: Its TGI is 1230 nM.

Q: And the IC50 (DU-145; Homo sapiens)?
A: The IC50 was 720 nM.

Q: What about the TGI (DU-145; total growth inhibition) of the same molecule?
A: The TGI was 1350 nM.

Q: And the IC50 (NCI-H23; Homo sapiens)?
A: The IC50 was 730 nM.

Q: And the TGI (NCI-H23; total growth inhibition)?
A: Its TGI is 1460 nM.

Q: And the “inhibition activity against hepatocellular carcinoma cell lines compared with sorafenib” value [1]?
A: The value was “higher inhibition activity than sorafenib”.

Q: What about the IC50 (A498; Homo sapiens) of the same molecule?
A: Its IC50 is 4710 nM.

Q: What about the TGI (A498; total growth inhibition) of the same molecule?
A: Its TGI is 9610 nM.

Q: And the IC50 (PC-3; Homo sapiens)?
A: Its IC50 is 720 nM.

Q: And the TGI (PC-3; total growth inhibition)?
A: The TGI was 1520 nM.

Q: And the IC50 (RXF 393; Homo sapiens)?
A: The IC50 was 510 nM.

Q: What about the TGI (RXF 393; total growth inhibition) of the same molecule?
A: The TGI was 1110 nM.

Q: And the IC50 (HOP-92; Homo sapiens)?
A: Its IC50 is 700 nM.

Q: What about the TGI (HOP-92; total growth inhibition) of the same molecule?
A: Its TGI is 1.33.

Q: And the IC50 (SK-OV-3; Homo sapiens)?
A: The IC50 was 2930 nM.

Q: And the TGI (SK-OV-3; total growth inhibition)?
A: Its TGI is 8230 nM.

Q: What about the IC50 (OVCAR-8; Homo sapiens) of the same molecule?
A: Its IC50 is 840 nM.

Q: What about the TGI (OVCAR-8; total growth inhibition, in µM (unit assumed)) of the same molecule?
A: Its TGI is 1.95.

Q: What about the IC50 (M14; Homo sapiens) of the same molecule?
A: Its IC50 is 670 nM.

Q: What about the TGI (M14; total growth inhibition) of the same molecule?
A: The TGI was 1410 nM.

Q: What about the IC50 (A549/ATCC; Homo sapiens) of the same molecule?
A: Its IC50 is 730 nM.

Q: And the TGI (A549/ATCC; total growth inhibition)?
A: Its TGI is 1640 nM.

Q: What about the IC50 (MDA-MB-435; Homo sapiens) of the same molecule?
A: Its IC50 is 620 nM.

Q: What about the TGI (MDA-MB-435; total growth inhibition) of the same molecule?
A: Its TGI is 1.26.

Q: And the IC50 (SK-MEL-5; Homo sapiens)?
A: The IC50 was 670 nM.

Q: What about the TGI (SK-MEL-5; total growth inhibition) of the same molecule?
A: Its TGI is 1210 nM.

Q: What about the IC50 (NCI-H322M; Homo sapiens) of the same molecule?
A: The IC50 was 710 nM.

Q: And the TGI (NCI-H322M; total growth inhibition)?
A: The TGI was 1550 nM.

Q: What about the IC50 (HepG2) of the same molecule?
A: The IC50 was 800 ± 40 nM.
